Results as given in a melting point compilation (Tetko et al.; mined from patent text by program, amines drawn as free bases though some values may be those of a salt).

SMILES	melting point
CC(C)CCOc1cccc2oc(C(=O)O)cc(=O)c12	179 to 180 °C
CCOC(=O)Nc1ccccc1NS(=O)(=O)c1ccc(OC)cc1	118 to 119 °C
COC(=O)COc1cc(C(=O)OC)nc2cc(Cl)ccc12	154 °C
O=C1CNC(=O)N1CCNCc1ccc(CN2CCCCC2)o1	133 to 136 °C
CC1(c2ccccc2)OC(=S)N(Nc2ccccc2)C1=O (stereo unspecified)	81 to 85 °C
C/C(=C\c1ccc(C(=O)O)cc1)c1ccc2c(c1)SCCS2	236 to 237 °C
Nc1cccc(SC(CCc2ccc(Cl)cc2)Cn2ccnc2)c1 (stereo unspecified)	89 to 91 °C
CCOC(=O)C(C)(C)Oc1ccc(-c2ccc(CNC(=O)c3cc(Cl)ccc3OC)cc2)cc1	< 20 °C
CCCc1c(OCCOc2ccc(S(=O)(=O)c3nnn[nH]3)cc2)ccc(C(C)=O)c1O	88 to 90 °C
CCCCC(=O)c1cn(C(c2ccccc2)(c2ccccc2)c2ccccc2)cn1	115 to 118 °C
COC(C#N)Cc1ccc2oc(Cc3nc(-c4ccccc4)oc3C)cc2c1 (stereo unspecified)	107 to 109 °C
COc1cccc2oc(Cn3nc(-c4ccc(OC(C)C)c(F)c4)c4c(N)ncnc43)c(-c3cccc(F)c3)c(=O)c12	145 to 148 °C
O=C(O)C(=O)c1ccc(C(=O)NCCOc2ccc3ccccc3c2)cc1	173 to 175 °C
COc1ccc(S(=O)(=O)N(C)c2ccc(Cl)cc2C(O)c2ccccc2Cl)cc1OC (stereo unspecified)	173 °C
COCCn1nc(-c2ccc(Cl)cc2)c2ccccc2c1=O	116 to 118 °C
CN(Cc1ccccc1)c1cc(-c2nc(=O)c3ccccc3s2)ccn1	146 to 147 °C
CC(=O)Nc1c(S(N)(=O)=O)cc(C(=O)O)c(Nc2ccccc2)c1NCc1ccco1	250 °C
O=C(O)CCCCCSC1=CCCC1=O	77.5 to 78 °C
CCN1CC(NC(=O)c2ccc(F)cc2)CN1CC	114 to 116 °C
Cc1cc(C)c(C[C@@H](C(=O)[C@H](Cc2c(C)cc(C)cc2C)N2C(=O)c3ccccc3C2=O)N2C(=O)c3ccccc3C2=O)c(C)c1	142 to 143 °C
CN=C(O)c1c(Cl)c(Cl)c(Sc2ccc(C)cc2)c(Cl)c1C(=O)O	209 to 216 °C
CCOC(=O)C1(NS(=O)(=O)c2ccc(F)cc2)CCCCC1	96 to 98 °C
CS(=O)(=O)c1ccc2c(c1)[C@@H](Oc1ccc(C#N)cc1Cl)[C@H](N1CCC[C@@H](N)C1)C2	162 °C
Cc1nc(Br)c2n1-c1ccc(Cl)cc1C(c1ccccc1F)=NC2	201 to 205 °C

SMILES	melting point
O=C(OCn1c(=O)[nH]cc(F)c1=O)c1cccnc1	179 to 180 °C
Nc1nc(O)c2cc(C#Cc3ccc(C(=O)O)cc3)cnc2n1	> 260 °C
CC(C)c1ccc(C(=O)c2c(N)sc3c2CCN(Cc2ccccc2)C3)cc1	157 to 158 °C
Cc1ccc(-c2cc(CNc3cc(CNc4cc(-c5ccc(C)cc5)[nH]n4)n[nH]3)n[nH]2)cc1	167 °C
CN(C)CCCN1N=C2C(=Cc3ccccc3)CCCCC2C1c1ccccc1 (stereo unspecified)	92 to 94 °C
CCCCCc1c(C(C)C)nc(C(C)C)c(C(C)CO)c1-c1ccc(F)cc1 (stereo unspecified)	77 to 79 °C
CC(C)c1nn(-c2ccc(C(F)(F)F)cc2)cc1CCCOc1ccccc1CC(=O)O	89 to 90 °C
O=C1C=C(c2ccc(Cl)c(Cl)c2)C(=O)N1Nc1ccccc1	208 to 210 °C
CC(C)NC1=NS(=O)(=O)c2cc(Cl)cc([N+](=O)[O-])c2N1	266 to 267 °C
CC(=O)c1cc(C#N)c(=O)[nH]c1-c1ccncc1	255 to 257 °C
CCCCCCCCCCN(O)C(=O)NCCCC(=O)OC	89 to 90 °C
COc1cc2c(cc1OCCN(C)C)N(C(=O)c1ccc(-c3ccc(C#N)cc3C)cc1)CC2	167 to 171 °C
CC(=O)Nc1ccccc1NS(=O)(=O)c1cc(C(=O)O)cc([N+](=O)[O-])c1Cl	225 to 227 °C
Fc1ccc(F)c(CN2CCNc3ncc(I)cc32)c1Cl	156 to 157 °C
O=S1(=O)CCC(c2ccccc2)(c2ccccc2)[C@@H]2CN(Cc3ccccc3)C[C@@H]21 (racemic)	186 °C
Cn1c(COc2cccc(C(=O)O)c2)nc2ccc(Oc3cccc(OC(F)(F)F)c3)cc21	221 to 227 °C
CCOC(=O)c1cc2cc(Oc3ccc(S(C)(=O)=O)cc3)cc(O)c2[nH]1	197 to 198 °C
CC(C)(Oc1ccc(C#N)cc1Cl)c1ccccc1	60 to 62 °C
CCNCC1CCN(c2c(F)cc3c(=O)c(C(=O)O)cn(C4(C)CC4)c3c2F)C1 (stereo unspecified)	261 to 263 °C
O=C(O)/C=C/c1ccc(OCCC2OCCO2)cc1Oc1ncc(C(F)(F)F)cc1Cl	157 to 158 °C
CCOC(=O)C(c1ccncc1)C(c1ccccc1)c1ccc(OC)c(OC2CCCC2)c1 (stereo unspecified)	165 to 166 °C
Oc1ccc2nc(Nc3ccccc3)cnc2c1	211 to 213 °C
Cc1cccc(OCC(O)CN2C(=O)C3CCCN3c3ncccc32)c1C (stereo unspecified)	123 to 125 °C
CCCCCCCCNC1=NS(=O)(=O)c2cc(Cl)cnc2N1	170 to 175 °C

SMILES	melting point
O=C1CN=C(c2ccccc2)c2cc(NO)ccc2N1	186 to 187 °C
COC(=O)c1cc(N(CCO)CCO)c(S(C)(=O)=O)cc1[N+](=O)[O-]	99 to 100 °C
CCC(=O)Nc1c(-c2c(F)cc(F)cc2F)c(Cl)nc2ncnn12	162 to 165 °C
NC(=O)C1C=Cc2cc(Cl)ccc2N1C(=O)c1ccccc1 (stereo unspecified)	230 to 234 °C
CSc1nc(N)c(N)c(N)n1	180 to 182 °C
COCOc1ccc(C=CC(C)=O)cc1OC	73 to 75 °C
CCCc1nccn1N=Cc1ccccc1	61 to 62 °C
CCC(Oc1ccc2oc3cc(Cl)ccc3c2c1)C(=O)O (stereo unspecified)	143 to 145 °C
O=C(O)Cc1c(C(=O)c2ccc(Cl)c(F)c2)[nH]c2cc(Cl)ccc12	179 to 182 °C
C#Cc1cnn2c(C(F)(F)F)cc(-c3ccc(C(F)(F)F)cc3)nc12	138 °C
COc1ccc(CCN2CCCC(CO)C2)cc1OC (stereo unspecified)	87.5 to 89 °C
CCS(=O)(=O)Nc1c(C)c(C)cc2nc(OC)c(OC)nc12	201 to 203 °C
CC(C)N1CCN(c2ccc(C(=O)NC3(C(=O)NCC#N)CCCCC3)cc2)CC1	218 to 220 °C
Fc1ncccc1-c1cscc1Br	48 to 50 °C
Cc1cc(=O)c(C(=O)O)c(C)n1C1CC(C)(C)NC(C)(C)C1	174 °C
NCc1cccc(O)c1	79 to 81 °C
C#CCn1c(=O)n(CC=C)c(=O)n(-c2cc(N3C(=O)C4=C(CCCC4)C3=O)c(F)cc2Cl)c1=O	107 to 114 °C
OCCCc1cn(Cc2ccccc2)c2ccccc12	75 °C
CC(C)(C)OC(=O)C(N)CCCCNC(=O)c1ccc(Cl)c(S(N)(=O)=O)c1 (stereo unspecified)	158 to 160 °C
CN(C(CCn1c(=O)cc(Cl)n(C)c1=O)C(=O)O)S(=O)(=O)c1ccc(Oc2ccccc2)cc1 (stereo unspecified)	115 to 117 °C
Cc1c(C(=O)CS(=O)Cc2ccc(Cl)cc2)sc2ccc(Cl)cc12 (stereo unspecified)	168 to 170 °C
COc1cccc2c1nc(C(F)F)n2-c1nc(Nc2ccc(F)nc2)nc(N2CCOCC2)n1	261 to 263 °C
Nc1c(F)c(N2CCC(C(N)c3ccccn3)C2)c(F)c2c1c(=O)c(C(=O)O)cn2C1CC1F (stereo unspecified)	178 to 180 °C
